Laboratory results as given in patent US20080125475A1 (priority 2006, published 2008).
Read-outs that look alike come from different tables or passages of the source.

Assays:
Sprague-Dawley rats [1] = assay: animal or person; assay type: in vivo; details: Rattus norvegicus, iv, read-out: ED50 acute
ORL1 receptor = biological target: T1, ORL1 receptor (Homo sapiens, UniProt P41146); assay: biochemical; assay type: binding
T1 construct: expressed in transfected cells; host or cells: CHO (recombinant CHO-ORL1 cells), membranes

Sprague-Dawley rats [2] = assay: animal or person; assay type: in vivo, rat; details: iv
mice = details: mouse, in vivo

T1 sequence (P41146 whole entry): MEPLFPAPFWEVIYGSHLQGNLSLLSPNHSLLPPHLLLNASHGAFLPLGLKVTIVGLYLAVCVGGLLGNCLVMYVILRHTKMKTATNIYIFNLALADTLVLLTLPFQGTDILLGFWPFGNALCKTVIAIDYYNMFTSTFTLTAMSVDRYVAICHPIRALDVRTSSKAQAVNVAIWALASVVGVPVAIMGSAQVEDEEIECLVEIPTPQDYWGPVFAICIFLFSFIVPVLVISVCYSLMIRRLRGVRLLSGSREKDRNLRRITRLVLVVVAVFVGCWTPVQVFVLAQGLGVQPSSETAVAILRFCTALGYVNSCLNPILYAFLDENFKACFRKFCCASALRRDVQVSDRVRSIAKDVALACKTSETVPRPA

CCC(=O)C(C[C@@H](C)N(C)C)(c1ccccc1)c1ccccc1 [Compound B7, L-methadone]
ED50 (Sprague-Dawley rats [1]): 0.21 mg/kg
Ki (ORL1 receptor): > 1000 nM
ED50 (Sprague-Dawley rats [2]; Rattus norvegicus, read-out: ED50 chronic): 0.49 mg/kg
Enhancement of action factor (Sprague-Dawley rats [2]; rat, in vivo): 0.4x
naloxone-induced withdrawal jumping (mice): reduced in comparison with B1-B4 but is still significant
